Reference: ChEMBL document CHEMBL1132660, “Three-dimensional quantitative structure-activity relationship study on cyclic urea derivatives as HIV-1 protease inhibitors: application of comparative molecular field analysis” (J Med Chem, 1999)

Biological target: Human immunodeficiency virus type 1 protease (Human immunodeficiency virus 1, UniProt Q72874)
Test: Inhibition of HIV-1 protease

Compared with `COc1cc(OC)cc(N2C(=O)N(Cc3cccc(C(=O)Nc4ccccn4)c3)[C@H](Cc3ccccc3)[C@H](O)[C@@H](O)[C@H]2Cc2ccccc2)c1`, `COc1cc(OC)cc(N2C(=O)N(Cc3cccc(C(=O)Nc4cnccn4)c3)[C@H](Cc3ccccc3)[C@H](O)[C@@H](O)[C@H]2Cc2ccccc2)c1` is 2.9-fold higher in Ki: 860 pM for the first, 2510 pM for the second.

Going from `N#CCNC(=O)c1cccc(CN2C(=O)N(C(=O)CNC(=O)c3ccccc3)[C@H](Cc3ccccc3)[C@H](O)[C@@H](O)[C@H]2Cc2ccccc2)c1` to `O=C(NCC1CC1)c1cccc(CN2C(=O)N(Cc3cccc(C(=O)NCC4CC4)c3)[C@H](Cc3ccccc3)[C@H](O)[C@@H](O)[C@H]2Cc2ccccc2)c1`, the Ki rises from 24 pM to 741 pM (31-fold).

Going from `Nc1cccc(N2C(=O)N(Cc3cccc(C(=O)Nc4cnccn4)c3)[C@H](Cc3ccccc3)[C@H](O)[C@@H](O)[C@H]2Cc2ccccc2)c1` to `COc1cccc(N2C(=O)N(Cc3cccc(C(=O)Nc4cnccn4)c3)[C@H](Cc3ccccc3)[C@H](O)[C@@H](O)[C@H]2Cc2ccccc2)c1`, the Ki rises from 16 pM to 38 pM (2.4-fold). The first binds more tightly here.

Going from `COc1cc(OC)cc(N2C(=O)N(Cc3cccc(C(=O)Nc4ccc(C)cn4)c3)[C@H](Cc3ccccc3)[C@H](O)[C@@H](O)[C@H]2Cc2ccccc2)c1` to `COc1cc(OC)cc(N2C(=O)N(Cc3cccc(C(=O)Nc4cccc(C)n4)c3)[C@H](Cc3ccccc3)[C@H](O)[C@@H](O)[C@H]2Cc2ccccc2)c1`, the Ki falls from 1900 pM to 700 pM (2.7-fold). The second binds more tightly here.

`COc1cccc(N2C(=O)N(Cc3cccc(C(=O)Nc4cccc(C)n4)c3)[C@H](Cc3ccccc3)[C@H](O)[C@@H](O)[C@H]2Cc2ccccc2)c1` and `COc1cccc(N2C(=O)N(Cc3cccc(C(=O)Nc4ccc(C)cn4)c3)[C@H](Cc3ccccc3)[C@H](O)[C@@H](O)[C@H]2Cc2ccccc2)c1` are within 1.5-fold of each other in Ki: 53 pM for the first, 69 pM for the second.

Compared with `Nc1cccc(N2C(=O)N(Cc3cccc(C(=O)Nc4ncc[nH]4)c3)[C@H](Cc3ccccc3)[C@H](O)[C@@H](O)[C@H]2Cc2ccccc2)c1`, `Cc1ccc(NC(=O)c2cccc(CN3C(=O)N(c4cccc(N)c4)[C@H](Cc4ccccc4)[C@H](O)[C@@H](O)[C@H]3Cc3ccccc3)c2)nc1` is 6.2-fold higher in Ki: 12 pM for the first, 75 pM for the second.

Compared with `Nc1cccc(N2C(=O)N(Cc3cccc(C(=O)Nc4nc5ccccc5[nH]4)c3)[C@H](Cc3ccccc3)[C@H](O)[C@@H](O)[C@H]2Cc2ccccc2)c1`, `COc1cccc(N2C(=O)N(Cc3cccc(C(=O)Nc4ccccn4)c3)[C@H](Cc3ccccc3)[C@H](O)[C@@H](O)[C@H]2Cc2ccccc2)c1` is 2-fold higher in Ki: 23 pM for the first, 47 pM for the second.

First: CC(C)(C)NC(=O)c1cccc(CN2C(=O)N(c3cccc(N)c3)[C@H](Cc3ccccc3)[C@H](O)[C@@H](O)[C@H]2Cc2ccccc2)c1
Second: O=C(Nc1ccccn1)c1cccc(CN2C(=O)N(c3cccc([N+](=O)[O-])c3)[C@H](Cc3ccccc3)[C@H](O)[C@@H](O)[C@H]2Cc2ccccc2)c1
The Ki of the first is 4.3-fold higher: 410 pM for the first, 96 pM for the second. The second binds more tightly here.

Compared with `CC(C)(C)CCN1C(=O)N(CCC(C)(C)C)[C@H](Cc2ccccc2)[C@H](O)[C@@H](O)[C@H]1Cc1ccccc1`, `O=C1N(Cc2ccc3ccccc3c2)[C@H](Cc2ccccc2)[C@H](O)[C@@H](O)[C@@H](Cc2ccccc2)N1C1CCCC1` is 130-fold lower in Ki: 36000 pM for the first, 280 pM for the second. The second binds more tightly here.

In the case of `O=C(NCc1ccccc1)c1cccc(CN2C(=O)N(Cc3cccc(C(=O)NCc4ccccc4)c3)[C@H](Cc3ccccc3)[C@H](O)[C@@H](O)[C@H]2Cc2ccccc2)c1`, the Ki is reported as 430 pM.
